The assay addresses T1, NHE3 (Homo sapiens, UniProt P48764).
T1 construct: expressed in transfected cells
T1 sequence (P48764 26-834): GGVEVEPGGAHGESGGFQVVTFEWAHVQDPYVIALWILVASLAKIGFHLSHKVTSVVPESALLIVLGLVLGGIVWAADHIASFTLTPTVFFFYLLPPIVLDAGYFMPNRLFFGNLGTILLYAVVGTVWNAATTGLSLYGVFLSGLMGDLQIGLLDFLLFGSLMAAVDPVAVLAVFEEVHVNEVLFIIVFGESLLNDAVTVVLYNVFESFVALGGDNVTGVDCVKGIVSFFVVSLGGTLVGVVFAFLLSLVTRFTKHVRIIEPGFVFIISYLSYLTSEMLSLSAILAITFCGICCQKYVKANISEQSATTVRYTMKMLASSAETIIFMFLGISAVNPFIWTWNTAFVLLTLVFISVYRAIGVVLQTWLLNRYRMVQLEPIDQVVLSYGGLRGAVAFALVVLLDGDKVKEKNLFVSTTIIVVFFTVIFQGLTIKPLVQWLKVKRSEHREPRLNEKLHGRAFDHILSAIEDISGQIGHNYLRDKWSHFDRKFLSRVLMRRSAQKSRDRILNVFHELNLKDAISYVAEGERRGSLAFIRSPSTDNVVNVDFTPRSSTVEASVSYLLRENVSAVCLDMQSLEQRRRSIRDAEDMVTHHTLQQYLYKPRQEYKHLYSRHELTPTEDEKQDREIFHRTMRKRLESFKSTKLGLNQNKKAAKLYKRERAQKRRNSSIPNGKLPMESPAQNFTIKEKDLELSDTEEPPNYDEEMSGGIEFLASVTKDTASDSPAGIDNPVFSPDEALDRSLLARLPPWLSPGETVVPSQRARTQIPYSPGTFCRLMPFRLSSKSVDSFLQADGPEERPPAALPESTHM
T1 sequence (Q99653 2-195 partner limits assumed): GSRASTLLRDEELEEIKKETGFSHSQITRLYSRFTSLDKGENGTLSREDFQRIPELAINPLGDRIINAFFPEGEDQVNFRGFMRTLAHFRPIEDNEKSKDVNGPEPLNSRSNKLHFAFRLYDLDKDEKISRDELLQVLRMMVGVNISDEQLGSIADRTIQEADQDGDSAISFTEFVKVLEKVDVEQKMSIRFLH
The assay is described as follows: persistent inhibition of NHE3 in the cell-based assay of example 181 (4-chloro vs 4-cyano pairs). To be noted: for IC50: cell-based assay of example 181, after washout, read-out: pIC50 (persistent) (converted); for Percent Inhibition: cell-based assay of example 181, persistent. As for the experimental part:
The following pairs of compounds differ only in the 4-position substituent (either chloro (X—Cl) or cyano (X—CN)):
The ability of compounds to inhibit human and rat NHE-3-mediated Na^+ dependent H^+ antiport after application and washout was measured using a modification of the pH sensitive dye method described above. PS120 fibroblasts stably expressing human NHE3 and NHERF2 were obtained from Mark Donowitz (Baltimore, Md.). Opossum kidney (OK) cells were obtained from the ATCC and propagated per their instructions. The rat NHE-3 gene was introduced into OK cells via electroporation, and cells were seeded into 96 well plates and grown overnight. Medium was aspirated from the wells, cells were washed once with NaCl-HEPES buffer (100 mM NaCl, 50 mM HEPES, 10 mM glucose, 5 mM KCl, 2 mM CaCl2, 1 mM MgCl2, pH 7.4), then overlayed with NaCl-HEPES buffer containing 0-30 μM test compound. After a 60 min incubation at room temperature, the test drug containing buffer was aspirated from the cells. Following aspiration, cells were washed once with NaCl-HEPES buffer without drug, then incubated for 30 min at 37° C. with NH4Cl-HEPES buffer (20 mM NH4Cl, 80 mM NaCl, 50 mM HEPES, 5 mM KCl, 2 mM CaCl2, 1 mM MgCl2, pH 7.4) containing 5 μM BCECF-AM. Cells were washed once with Ammonium free, Na^+-free HEPES (100 mM choline, 50 mM HEPES, 10 mM glucose, 5 mM KCl, 2 mM CaCl2, 1 mM MgCl2, pH 7.4) and incubated in the same buffer for 10 minutes at room temperature to lower intracellular pH. NHE-3-mediated recovery of neutral intracellular pH was initiated (10 min after compound washout) by addition of Na-HEPES buffer. […] Changes in intracellular pH were monitored using a FLIPR Tetra® (Molecular Devices, Sunnyvale, Calif.) by excitation at λex 439 to 505 nm, and measuring BCECF fluorescence at λem 538 nm. The initial rate of the fluorescence ratio change was used as a measure of NHE-mediated Na^+/H^+ activity, and reported as the change in fluorescence ratio per minute.

`C[C@@H]1CN([C@H]2Cc3c(Cl)cc(Cl)cc3[C@@H]2Oc2ccc(S(=O)(=O)N[C@H]3CCN(CCOCCNC(=O)NCCCCNC(=O)NCCOCCN4CC[C@H](NS(=O)(=O)c5ccc(O[C@H]6c7cc(Cl)cc(Cl)c7C[C@@H]6N6CCN[C@H](C)C6)cc5)C4)C3)cc2)CCN1` [A-Cl, 3-(2-{2-[(3S)-3-(4-{[(1S,2S)-4,6-dichloro-2-[(3R)-3-methylpiperazin-1-yl]-2,3-dihydro-1H-inden-1-yl]oxy}benzenesulfonamido)pyrrolidin-1-yl]ethoxy}ethyl)-1-(4-{[(2-{2-[(3S)-3-(4-{[(1S,2S)-4,6-dichloro-2-[(3R)-3-methylpiperazin-1-yl]-2,3-dihydro-1H-inden-1-yl]oxy}benzenesulfonamido)pyrrolidin-1-yl]ethoxy}ethyl)carbamoyl]amino}butyl)urea]: the IC50 is 2.51 nM and the “Percent Inhibition” value is 101%. As for `C[C@@H]1CN([C@H]2Cc3c(C#N)cc(Cl)cc3[C@@H]2Oc2ccc(S(=O)(=O)N[C@H]3CCN(C(=O)CNC(=O)CNC(=O)NCCCCNC(=O)NCC(=O)NCC(=O)N4CC[C@H](NS(=O)(=O)c5ccc(O[C@H]6c7cc(Cl)cc(C#N)c7C[C@@H]6N6CCN[C@H](C)C6)cc5)C4)C3)cc2)CCN1` [B-CN, N-{2-[(3S)-3-(4-{[(1S,2S)-6-chloro-4-cyano-2-[(3R)-3-methylpiperazin-1-yl]-2,3-dihydro-1H-inden-1-yl]oxy}benzenesulfonamido)pyrrolidin-1-yl]-2-oxoethyl}-2-({[4-({[({2-[(3S)-3-(4-{[(1S,2S)-6-chloro-4-cyano-2-[(3R)-3-methylpiperazin-1-yl]-2,3-dihydro-1H-inden-1-yl]oxy}benzenesulfonamido)pyrrolidin-1-yl]-2-oxoethyl}carbamoyl)methyl]carbamoyl}amino)butyl]carbamoyl}amino)acetamide], the IC50 was 0.126 nM and the “Percent Inhibition” value was 110%. As to `C[C@@H]1CN([C@H]2Cc3c(Cl)cc(Cl)cc3[C@@H]2Oc2ccc(S(=O)(=O)N[C@H]3CCN(C(=O)CNC(=O)CNC(=O)NCCCCNC(=O)NCC(=O)NCC(=O)N4CC[C@H](NS(=O)(=O)c5ccc(O[C@H]6c7cc(Cl)cc(Cl)c7C[C@@H]6N6CCN[C@H](C)C6)cc5)C4)C3)cc2)CCN1` [B-Cl, N-{2-[(3S)-3-(4-{[(1S,2S)-4,6-dichloro-2-[(3R)-3-methylpiperazin-1-yl]-2,3-dihydro-1H-inden-1-yl]oxy}benzenesulfonamido)pyrrolidin-1-yl]-2-oxoethyl}-2-({[4-({[({2-[(3S)-3-(4-{[(1S,2S)-4,6-dichloro-2-[(3R)-3-methylpiperazin-1-yl]-2,3-dihydro-1H-inden-1H-yl]oxy}benzenesulfonamido)pyrrolidin-1-yl]-2-oxoethyl}carbamoyl)methyl]carbamoyl}amino)butyl]carbamoyl}amino)acetamide], the IC50 was 0.631 nM and the “Percent Inhibition” value came to 102%.

On to `N#Cc1cc(Cl)cc2c1C[C@H](N1CCNCC1)[C@H]2Oc1ccc(S(=O)(=O)N[C@H]2CCN(CCOCCNC(=O)NCCCCNC(=O)NCCOCCN3CC[C@H](NS(=O)(=O)c4ccc(O[C@H]5c6cc(Cl)cc(C#N)c6C[C@@H]5N5CCNCC5)c(F)c4)C3)C2)cc1F` [C-CN, 3-(2-{2-[(3 S)-3-(4-{[(1S,2S)-6-chloro-4-cyano-2-(piperazin-1-yl)-2,3-dihydro-1H-inden-1-yl]oxy}-3-fluorobenzenesulfonamido)pyrrolidin-1-yl]ethoxy}ethyl)-1-(4-{[(2-{2-[(3S)-3-(4-{[(1S,2S)-6-chloro-4-cyano-2-(piperazin-1-yl)-2,3-dihydro-1H-inden-1-yl]oxy}-3-fluorobenzenesulfonamido)pyrrolidin-1-yl]ethoxy}ethyl)carbamoyl]amino}butyl)urea], for which the IC50 is 0.501 nM and the “Percent Inhibition” value stood at 106%.

On to `O=C(NCCCCNC(=O)NCCOCCN1CC[C@H](NS(=O)(=O)c2ccc(O[C@H]3c4cc(Cl)cc(Cl)c4C[C@@H]3N3CCNCC3)c(F)c2)C1)NCCOCCN1CC[C@H](NS(=O)(=O)c2ccc(O[C@H]3c4cc(Cl)cc(Cl)c4C[C@@H]3N3CCNCC3)c(F)c2)C1` [C-Cl, 3-(2-{2-[(3S)-3-(4-{[(1S,2S)-4,6-dichloro-2-(piperazin-1-yl)-2,3-dihydro-1H-inden-1-yl]oxy}-3-fluorobenzenesulfonamido)pyrrolidin-1-yl]ethoxy}ethyl)-1-(4-{[(2-{2-[(3S)-3-(4-{[(1S,2S)-4,6-dichloro-2-(piperazin-1-yl)-2,3-dihydro-1H-inden-1-yl]oxy}-3-fluorobenzenesulfonamido)pyrrolidin-1-yl]ethoxy}ethyl)carbamoyl]amino}butyl)urea], for which the IC50 is 3.98 nM and the “Percent Inhibition” value came out at 90%.

For the compound `N#Cc1cc(Cl)cc2c1C[C@H](N1CCNCC1)[C@H]2Oc1ccc(S(=O)(=O)NCCOCCOCCNC(=O)NCCCCNC(=O)NCCOCCOCCNS(=O)(=O)c2ccc(O[C@H]3c4cc(Cl)cc(C#N)c4C[C@@H]3N3CCNCC3)c(F)c2)cc1F` [D-CN, 3-(2-{2-[2-(4-{[(1S,2S)-6-chloro-4-cyano-2-(piperazin-1-yl)-2,3-dihydro-1H-inden-1-yl]oxy}-3-fluorobenzenesulfonamido)ethoxy]ethoxy}ethyl)-1-(4-{[(2-{2-[2-(4-{[(1S,2S)-6-chloro-4-cyano-2-(piperazin-1-yl)-2,3-dihydro-1H-inden-1-yl]oxy}-3-fluorobenzenesulfonamido)ethoxy]ethoxy}ethyl)carbamoyl]amino}butyl)urea], the IC50 was 0.501 nM and the “Percent Inhibition” value turned out to be 74%. As to `O=C(NCCCCNC(=O)NCCOCCOCCNS(=O)(=O)c1ccc(O[C@H]2c3cc(Cl)cc(Cl)c3C[C@@H]2N2CCNCC2)c(F)c1)NCCOCCOCCNS(=O)(=O)c1ccc(O[C@H]2c3cc(Cl)cc(Cl)c3C[C@@H]2N2CCNCC2)c(F)c1` [D-Cl, 3-(2-{2-[2-(4-{[(1S,2S)-4,6-dichloro-2-(piperazin-1-yl)-2,3-dihydro-1H-inden-1-yl]oxy}-3-fluorobenzenesulfonamido)ethoxy]ethoxy}ethyl)-1-(4-{[(2-{2-[2-(4-{[(1S,2S)-4,6-dichloro-2-(piperazin-1-yl)-2,3-dihydro-1H-1-inden-1-yl]oxy}-3-fluorobenzenesulfonamido)ethoxy]ethoxy}ethyl)carbamoyl]amino}butyl)urea], the IC50 was 3.98 nM. For the compound `CN(C)[C@@H]1CCCN([C@H]2Cc3c(C#N)cc(Cl)cc3[C@@H]2Oc2ccc(S(=O)(=O)NCCOCCOCCNC(=O)NCCCCNC(=O)NCCOCCOCCNS(=O)(=O)c3ccc(O[C@H]4c5cc(Cl)cc(C#N)c5C[C@@H]4N4CCC[C@@H](N(C)C)C4)cc3)cc2)C1` [E-CN, 3-(2-{2-[2-(4-{[(1S,2S)-6-chloro-4-cyano-2-[(3R)-3-(dimethylamino)piperidin-1-yl]-2,3-dihydro-1H-inden-1-yl]oxy}benzenesulfonamido)ethoxy]ethoxy}ethyl)-1-(4-{[(2-{2-[2-(4-{[(1S,2S)-6-chloro-4-cyano-2-[(3R)-3-(dimethylamino)piperidin-1-yl]-2,3-dihydro-1H-inden-1-yl]oxy}benzenesulfonamido)ethoxy]ethoxy}ethyl)carbamoyl]amino}butyl)urea], the IC50 was 1.26 nM and the “Percent Inhibition” value is given as 36%.
